# Literature values in patent US20070027075A1, “Compositions and methods for targeted drug delivery” (priority 2003, published 2007).
# Biological target: prostate-specific antigen (Homo sapiens, UniProt P07288)
# Conditions: PSA
# Sequence of prostate-specific antigen (P07288 25-261): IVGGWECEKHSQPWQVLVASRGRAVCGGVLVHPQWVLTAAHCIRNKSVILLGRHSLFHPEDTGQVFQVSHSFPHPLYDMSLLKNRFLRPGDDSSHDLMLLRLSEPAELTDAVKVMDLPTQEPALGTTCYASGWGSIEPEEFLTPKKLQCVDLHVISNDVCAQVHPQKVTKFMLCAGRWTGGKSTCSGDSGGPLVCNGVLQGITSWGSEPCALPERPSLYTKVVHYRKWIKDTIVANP
sequence,measurement,value
CVFTSDYAFC,Kd,8 µM
